Legend:
Test in all cases: relative viability (nuclei count vs DMSO), 5 days (fraction); higher = more cells survive
NCI-H1703 = tested on: NCI-H1703
Procedure, shortened: (§1)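 Dosing by pin tool came one day after lung cancer cell lines were seeded in 1536-well plates, using either one drug or a fixed anchor-drug dose plus five library-drug doses (not always all listed) in √10 steps. After 5 days, nuclei were counted on 4× images. Relative viability is treated-well nuclei count divided by vehicle-well nuclei count, and values are medians of duplicate plates.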

HCC-44 = tested on: HCC-44
Procedure, shortened: as §1

NCI-H1299 = tested on: NCI-H1299
Procedure, shortened: as §1

A549 = tested on: A549
Procedure, shortened: as §1

NCI-H2085 = tested on: NCI-H2085
Procedure, shortened: as §1

NCI-H1437 = tested on: NCI-H1437
Procedure, shortened: as §1

HCC-366 = tested on: HCC-366
Procedure, shortened: as §1

LOU-NH91 = tested on: LOU-NH91
Procedure, shortened: as §1

IA-LM = tested on: IA-LM
Procedure, shortened: as §1

EBC-1 = tested on: EBC-1
Procedure, shortened: as §1

LXF-289 = tested on: LXF-289
Procedure, shortened: as §1

Calu-6 = tested on: Calu-6
Procedure, shortened: as §1

NCI-H3122 = tested on: NCI-H3122
Procedure, shortened: as §1

With `COc1cc2nccc(Oc3ccc(NC(=O)Nc4cc(C)on4)c(Cl)c3)c2cc1OC` [Tivozanib] + C[C@@H](Oc1cc(-c2cnn(C3CCNCC3)c2)cnc1N)c1c(Cl)ccc(F)c1Cl [Crizotinib] (partner 1 µM) the relative viability (NCI-H1703; first compound 0.005 µM) was 0.239, the relative viability (NCI-H1703; first compound 0.01581 µM) was 0.194 and the relative viability (NCI-H1703; first compound 0.05 µM) was 0.163. It also gave a relative viability (NCI-H1703; first compound 0.1581 µM) of 0.157, a relative viability (NCI-H1703; first compound 0.5 µM) of 0.155 and a relative viability (HCC-44; first compound 0.005 µM) of 0.743. The relative viability (HCC-44; first compound 0.01581 µM) was 0.787, the relative viability (HCC-44; first compound 0.05 µM) was 0.82 and the relative viability (HCC-44; first compound 0.1581 µM) was 0.78. It also gave a relative viability (HCC-44; first compound 0.5 µM) of 0.811, a relative viability (NCI-H1299; first compound 0.005 µM) of 0.922 and a relative viability (NCI-H1299; first compound 0.01581 µM) of 0.971. It also gave a relative viability (NCI-H1299; first compound 0.05 µM) of 0.968, a relative viability (NCI-H1299; first compound 0.1581 µM) of 0.991 and a relative viability (NCI-H1299; first compound 0.5 µM) of 0.906. The relative viability (A549; first compound 0.005 µM) was 0.765, the relative viability (A549; first compound 0.01581 µM) was 0.793 and the relative viability (A549; first compound 0.05 µM) was 0.694. It also gave a relative viability (A549; first compound 0.1581 µM) of 0.828, a relative viability (A549; first compound 0.5 µM) of 0.652 and a relative viability (NCI-H2085; first compound 0.005 µM) of 0.699. It also gave a relative viability (NCI-H2085; first compound 0.01581 µM) of 0.87, a relative viability (NCI-H2085; first compound 0.05 µM) of 0.912 and a relative viability (NCI-H2085; first compound 0.1581 µM) of 0.802. It also gave a relative viability (NCI-H2085; first compound 0.5 µM) of 0.814, a relative viability (NCI-H1437; first compound 0.005 µM) of 0.899 and a relative viability (NCI-H1437; first compound 0.01581 µM) of 0.932. The relative viability (NCI-H1437; first compound 0.05 µM) was 0.859, the relative viability (NCI-H1437; first compound 0.1581 µM) was 0.947 and the relative viability (NCI-H1437; first compound 0.5 µM) was 0.824. It also gave a relative viability (HCC-366; first compound 0.005 µM) of 0.515, a relative viability (HCC-366; first compound 0.01581 µM) of 0.59 and a relative viability (HCC-366; first compound 0.05 µM) of 0.502. It also gave a relative viability (HCC-366; first compound 0.1581 µM) of 0.487, a relative viability (HCC-366; first compound 0.5 µM) of 0.372 and a relative viability (LOU-NH91; first compound 0.005 µM) of 0.723. It also gave a relative viability (LOU-NH91; first compound 0.01581 µM) of 0.737, a relative viability (LOU-NH91; first compound 0.05 µM) of 0.77 and a relative viability (LOU-NH91; first compound 0.1581 µM) of 0.774. The relative viability (LOU-NH91; first compound 0.5 µM) was 0.708, the relative viability (IA-LM; first compound 0.01581 µM) was 0.716 and the relative viability (IA-LM; first compound 0.05 µM) was 1.04. It also gave a relative viability (IA-LM; first compound 0.1581 µM) of 0.507, a relative viability (IA-LM; first compound 0.5 µM) of 0.494 and a relative viability (EBC-1; first compound 0.005 µM) of 0.182. The relative viability (EBC-1; first compound 0.01581 µM) was 0.186, the relative viability (EBC-1; first compound 0.05 µM) was 0.211 and the relative viability (EBC-1; first compound 0.1581 µM) was 0.207. The relative viability (EBC-1; first compound 0.5 µM) was 0.192, the relative viability (LXF-289; first compound 0.005 µM) was 0.762 and the relative viability (LXF-289; first compound 0.01581 µM) was 0.742. The relative viability (LXF-289; first compound 0.05 µM) was 0.82, the relative viability (LXF-289; first compound 0.1581 µM) was 0.864 and the relative viability (LXF-289; first compound 0.5 µM) was 0.705. The relative viability (Calu-6; first compound 0.005 µM) was 0.778, the relative viability (Calu-6; first compound 0.01581 µM) was 0.772 and the relative viability (Calu-6; first compound 0.05 µM) was 0.706. For the same compound, the relative viability (Calu-6; first compound 0.1581 µM) was 0.839, the relative viability (Calu-6; first compound 0.5 µM) was 0.711 and the relative viability (NCI-H3122; first compound 0.005 µM) was 0.236. It also gave a relative viability (NCI-H3122; first compound 0.01581 µM) of 0.266, a relative viability (NCI-H3122; first compound 0.05 µM) of 0.266 and a relative viability (NCI-H3122; first compound 0.1581 µM) of 0.29. The relative viability (NCI-H3122; first compound 0.5 µM) was 0.32.

With `COc1cc2nccc(Oc3ccc(NC(=O)Nc4cc(C)on4)c(Cl)c3)c2cc1OC` [Tivozanib] + C[C@]1(O)C[C@@H](c2nc(-c3ccc4ccc(-c5ccccc5)nc4c3)c3c(N)nccn32)C1 [Linsitinib] (partner 1 µM) the relative viability (NCI-H1703; first compound 0.005 µM) was 0.402, the relative viability (NCI-H1703; first compound 0.01581 µM) was 0.254 and the relative viability (NCI-H1703; first compound 0.05 µM) was 0.167. For the same compound, the relative viability (NCI-H1703; first compound 0.1581 µM) was 0.158, the relative viability (NCI-H1703; first compound 0.5 µM) was 0.283 and the relative viability (HCC-44; first compound 0.005 µM) was 0.66. For the same compound, the relative viability (HCC-44; first compound 0.01581 µM) was 0.687, the relative viability (HCC-44; first compound 0.05 µM) was 0.641 and the relative viability (HCC-44; first compound 0.1581 µM) was 0.679. The relative viability (HCC-44; first compound 0.5 µM) was 0.685, the relative viability (NCI-H1299; first compound 0.005 µM) was 0.956 and the relative viability (NCI-H1299; first compound 0.01581 µM) was 0.981. The relative viability (NCI-H1299; first compound 0.05 µM) was 0.981, the relative viability (NCI-H1299; first compound 0.1581 µM) was 0.998 and the relative viability (NCI-H1299; first compound 0.5 µM) was 0.841. The relative viability (A549; first compound 0.005 µM) was 0.52, the relative viability (A549; first compound 0.01581 µM) was 0.606 and the relative viability (A549; first compound 0.05 µM) was 0.625. For the same compound, the relative viability (A549; first compound 0.1581 µM) was 0.635, the relative viability (A549; first compound 0.5 µM) was 0.656 and the relative viability (NCI-H2085; first compound 0.005 µM) was 0.917. It also gave a relative viability (NCI-H2085; first compound 0.01581 µM) of 0.854, a relative viability (NCI-H2085; first compound 0.05 µM) of 1.06 and a relative viability (NCI-H2085; first compound 0.1581 µM) of 0.781. It also gave a relative viability (NCI-H2085; first compound 0.5 µM) of 0.877, a relative viability (NCI-H1437; first compound 0.005 µM) of 1.02 and a relative viability (NCI-H1437; first compound 0.01581 µM) of 0.989. For the same compound, the relative viability (NCI-H1437; first compound 0.05 µM) was 0.969, the relative viability (NCI-H1437; first compound 0.1581 µM) was 0.947 and the relative viability (NCI-H1437; first compound 0.5 µM) was 1. It also gave a relative viability (HCC-366; first compound 0.005 µM) of 0.475, a relative viability (HCC-366; first compound 0.01581 µM) of 0.57 and a relative viability (HCC-366; first compound 0.05 µM) of 0.712. For the same compound, the relative viability (HCC-366; first compound 0.1581 µM) was 0.516, the relative viability (HCC-366; first compound 0.5 µM) was 0.606 and the relative viability (LOU-NH91; first compound 0.005 µM) was 0.934. The relative viability (LOU-NH91; first compound 0.01581 µM) was 0.941, the relative viability (LOU-NH91; first compound 0.05 µM) was 0.981 and the relative viability (LOU-NH91; first compound 0.1581 µM) was 0.933. It also gave a relative viability (LOU-NH91; first compound 0.5 µM) of 1, a relative viability (IA-LM; first compound 0.005 µM) of 0.526 and a relative viability (IA-LM; first compound 0.01581 µM) of 0.508. For the same compound, the relative viability (IA-LM; first compound 0.05 µM) was 0.573, the relative viability (IA-LM; first compound 0.1581 µM) was 0.467 and the relative viability (IA-LM; first compound 0.5 µM) was 0.511. For the same compound, the relative viability (EBC-1; first compound 0.005 µM) was 0.86, the relative viability (EBC-1; first compound 0.01581 µM) was 0.898 and the relative viability (EBC-1; first compound 0.05 µM) was 0.909. It also gave a relative viability (EBC-1; first compound 0.1581 µM) of 0.762, a relative viability (EBC-1; first compound 0.5 µM) of 0.887 and a relative viability (LXF-289; first compound 0.005 µM) of 0.974. It also gave a relative viability (LXF-289; first compound 0.01581 µM) of 0.929, a relative viability (LXF-289; first compound 0.05 µM) of 0.945 and a relative viability (LXF-289; first compound 0.1581 µM) of 1.02. The relative viability (LXF-289; first compound 0.5 µM) was 0.983, the relative viability (Calu-6; first compound 0.005 µM) was 0.89 and the relative viability (Calu-6; first compound 0.01581 µM) was 0.941. The relative viability (Calu-6; first compound 0.05 µM) was 0.894, the relative viability (Calu-6; first compound 0.1581 µM) was 0.915 and the relative viability (Calu-6; first compound 0.5 µM) was 0.83. It also gave a relative viability (NCI-H3122; first compound 0.005 µM) of 1.1, a relative viability (NCI-H3122; first compound 0.01581 µM) of 1.04 and a relative viability (NCI-H3122; first compound 0.05 µM) of 1. It also gave a relative viability (NCI-H3122; first compound 0.1581 µM) of 1.19 and a relative viability (NCI-H3122; first compound 0.5 µM) of 1.06.
